Where a name gives a salt, the structure may show the parent alone. Read-outs that look alike come from different tables or passages of the source.
System: caudate lesioned mouse
Experiment: caudate lesioned mouse test (anti-parkinson activity)
Type: in vivo
Settings: for ED50: caudate lesioned mouse; for Molar Potency Ratio Claimed/Ref. Ester: claimed N-propyl ester vs corresponding N-methyl reference ester; for responders at 132 µmol/kg: dose 0.132 m. mole/kg; for responders at 52 µmol/kg: dose 0.052 m. mole/kg
Procedure: An index of anti-parkinson activity was determined using the caudate lesioned mouse test described by Lotti, Life Sci., 10, 781-789 (1971). The mice having unilateral lesions of the caudate nucleus prepared according to the method of Lotti supra were observed immediately after the surgical procedure for strong postural asymmetries directed to the same side as the lesion. When this asymmetry was not observed, the mice were discarded. Operated mice were allowed at least 14 days to recover prior to drug testing. The lesioned mice were tested with apomorphine using 1.7 mg./kg. of base administered intraperitoneally in a 1% suspension in gum tragacanth. […] Only those mice which twisted or circled toward the lesioned side in all three test periods after the apomorphine injection were retained for further drug testing. The test drugs were all administered in 1% gum tragacanth suspension in a volume of 0.1 ml./10 g. of body weight. Doses were expressed in mg./kg. of free base.
Results of tests in the caudate lesioned mouse test described above which were obtained on the compounds of the invention are given in the table below identified, in each case, by the example numbers above where their preparations are described. Corresponding data for reference apomorphine diesters described in German patent application No. 2,154,162 are given in a side-by-side relationship for a number of the species. The reference compounds, designated Ref. 1, Ref. 1B, Ref. 1C, Ref. 1D, Ref. 1E, Ref. 1F, Ref. 2 and Ref. 2A correspond, respectively, to the compounds of the invention identified by Examples 1, 1B, 1C, 1D, 1E, 1F, 2 and 2A and differ from the latter only in having a methyl group on the apomorphine nitrogen from instead of an n-propyl group as present in the instant compounds.

[1] = Mus musculus, 0.5 h, read-out: No. Mice Affected/No. Mice Tested, 1/2 h
[2] = Mus musculus, 1 h, read-out: No. Mice Affected/No. Mice Tested, 1 h
[3] = Mus musculus, 2 h, read-out: No. Mice Affected/No. Mice Tested, 2 h
[4] = Mus musculus, 4 h, read-out: No. Mice Affected/No. Mice Tested, 4 h
[5] = Mus musculus, 6 h, read-out: No. Mice Affected/No. Mice Tested, 6 h
[6] = Mus musculus, 24 h, read-out: No. Mice Affected/No. Mice Tested, 24 h
[7] = Mus musculus, read-out: No. Mice Affected/No. Mice Tested, Total
[8] = Mus musculus, 0.5 h, dose 0.026 m. mole/kg, 1/2 h post-drug, read-out: No. Mice Affected/No. Mice Tested, 1/2 h (converted)
[9] = Mus musculus, 0.5 h, 1/2 h post-drug, read-out: No. Mice Affected/No. Mice Tested, 1/2 h (converted)
[10] = Mus musculus, dose 0.026 m. mole/kg, 1 h post-drug, read-out: No. Mice Affected/No. Mice Tested, 1 h (converted)
[11] = Mus musculus, dose 0.026 m. mole/kg, 4 h post-drug, read-out: No. Mice Affected/No. Mice Tested, 4 h (converted)
[12] = Mus musculus, dose 0.026 m. mole/kg, 6 h post-drug, read-out: No. Mice Affected/No. Mice Tested, 6 h (converted)
[13] = Mus musculus, dose 0.026 m. mole/kg, 24 h post-drug, read-out: No. Mice Affected/No. Mice Tested, 24 h
[14] = Mus musculus, dose 0.026 m. mole/kg, total, read-out: No. Mice Affected/No. Mice Tested, Total (converted)
[15] = Mus musculus, 1 h post-drug, read-out: No. Mice Affected/No. Mice Tested, 1 h (converted)
[16] = Mus musculus, 4 h post-drug, read-out: No. Mice Affected/No. Mice Tested, 4 h (converted)
[17] = Mus musculus, 6 h post-drug, read-out: No. Mice Affected/No. Mice Tested, 6 h (converted)
[18] = Mus musculus, total, read-out: No. Mice Affected/No. Mice Tested, Total (converted)
[19] = Mus musculus, 24 h post-drug, read-out: No. Mice Affected/No. Mice Tested, 24 h

## CCCN1CCc2cccc3c2C1Cc1ccc(OC(=O)CC)c(OC(=O)CC)c1-3 (stereo not drawn) [Ex. 1 (Base), N-propylnorapomorphine dipropionate]
[1]
  responders at 5.2 µmol/kg: 0%
  responders at 13 µmol/kg: 75%
  responders at 26 µmol/kg: 100%
[2]
  responders at 5.2 µmol/kg: 0%
  responders at 13 µmol/kg: 75%
  responders at 26 µmol/kg: 100%
[3]
  responders at 5.2 µmol/kg: 0%
  responders at 13 µmol/kg: 75%
  responders at 26 µmol/kg: 75%
[4]
  responders at 5.2 µmol/kg: 0%
  responders at 13 µmol/kg: 75%
  responders at 26 µmol/kg: 75%
[5]
  responders at 5.2 µmol/kg: 0%
  responders at 13 µmol/kg: 50%
  responders at 26 µmol/kg: 25%
[6]
  responders at 5.2 µmol/kg: 0%
  responders at 13 µmol/kg: 0%
  responders at 26 µmol/kg: 0%
Mus musculus
  ED50: 10 µmol/kg
[7]
  responders at 5.2 µmol/kg: 0%
  responders at 13 µmol/kg: 75%
  responders at 26 µmol/kg: 100%
  Molar Potency Ratio Claimed/Ref. Ester: 10

## CCCN1CCc2cccc3c2C1Cc1ccc(OC(=O)CC)c(OC(=O)CC)c1-3 (stereo not drawn) [Ex. 1 (HCl), N-propylnorapomorphine dipropionate]
  ED50: 0.0094 m. mole/kg
  Molar Potency Ratio Claimed/Ref. Ester: 10
[1]
  responders at 6.5 µmol/kg: 25%
  responders at 130 µmol/kg: 75%
  responders at 260 µmol/kg: 100%
[2]
  responders at 6.5 µmol/kg: 25%
  responders at 130 µmol/kg: 50%
  responders at 260 µmol/kg: 100%
[3]
  responders at 6.5 µmol/kg: 0%
  responders at 130 µmol/kg: 0%
  responders at 260 µmol/kg: 100%
[4]
  responders at 6.5 µmol/kg: 0%
  responders at 130 µmol/kg: 0%
  responders at 260 µmol/kg: 100%
[5]
  responders at 6.5 µmol/kg: 0%
  responders at 130 µmol/kg: 0%
  responders at 260 µmol/kg: 100%
[7]
  responders at 6.5 µmol/kg: 25%
  responders at 130 µmol/kg: 75%
  responders at 260 µmol/kg: 100%

## CCCC(=O)Oc1ccc2c(c1OC(=O)CCC)-c1cccc3c1C(C2)N(CCC)CC3 (stereo not drawn) [Ex. 1A, N-Propylnorapomorphine dibutanoate]
[8]
  responders at 26 µmol/kg: 0%
[9]
  responders at 132 µmol/kg: 50%
[10]
  responders at 26 µmol/kg: 0%
Mus musculus, dose 0.026 m. mole/kg, 2 h post-drug, read-out: No. Mice Affected/No. Mice Tested, 2 h (converted)
  responders at 26 µmol/kg: 0%
[11]
  responders at 26 µmol/kg: 0%
[12]
  responders at 26 µmol/kg: 0%
[13]
  responders at 26 µmol/kg: 0%
[14]
  responders at 26 µmol/kg: 0%
[15]
  responders at 132 µmol/kg: 100%
Mus musculus, 2 h post-drug, read-out: No. Mice Affected/No. Mice Tested, 2 h (converted)
  responders at 132 µmol/kg: 100%
[16]
  responders at 132 µmol/kg: 100%
[17]
  responders at 132 µmol/kg: 100%
Mus musculus, 24 h post-drug, read-out: No. Mice Affected/No. Mice Tested, 24 h (converted)
  responders at 132 µmol/kg: 100%
[18]
  responders at 132 µmol/kg: 100%

## CCCN1CCc2cccc3c2C1Cc1ccc(OC(=O)C(C)C)c(OC(=O)C(C)C)c1-3 (stereo not drawn) [Ex. 1B, N-Propylnorapomorphine diisobutyrate]
[8]
  responders at 26 µmol/kg: 0%
[9]
  responders at 52 µmol/kg: 33.3%
[10]
  responders at 26 µmol/kg: 25%
[11]
  responders at 26 µmol/kg: 50%
[12]
  responders at 26 µmol/kg: 50%
[13]
  responders at 26 µmol/kg: 0%
[14]
  responders at 26 µmol/kg: 50%
[15]
  responders at 52 µmol/kg: 33.3%
[16]
  responders at 52 µmol/kg: 33.3%
[17]
  responders at 52 µmol/kg: 0%
[19]
  responders at 52 µmol/kg: 0%
[18]
  responders at 52 µmol/kg: 33.3%
  Molar Potency Ratio Claimed/Ref. Ester: ≥ 8

## CCCN1CCc2cccc3c2C1Cc1ccc(OC(=O)C(C)(C)C)c(OC(=O)C(C)(C)C)c1-3 (stereo not drawn) [Ex. 1C, N-Propylnorapomorphine dipivaloate]
[8]
  responders at 26 µmol/kg: 0%
[10]
  responders at 26 µmol/kg: 0%
[11]
  responders at 26 µmol/kg: 100%
[12]
  responders at 26 µmol/kg: 100%
[13]
  responders at 26 µmol/kg: 0%
[14]
  responders at 26 µmol/kg: 100%
  Molar Potency Ratio Claimed/Ref. Ester: ≥ 16

## CCCN1CCc2cccc3c2C1Cc1ccc(OC(=O)c2ccccc2)c(OC(=O)c2ccccc2)c1-3 (stereo not drawn) [Ex. 1E, N-Propylnorapomorphine dibenzoate hydrochloride]
[9]
  responders at 52 µmol/kg: 0%
[15]
  responders at 52 µmol/kg: 0%
[16]
  responders at 52 µmol/kg: 66.7%
[17]
  responders at 52 µmol/kg: 33.3%
[19]
  responders at 52 µmol/kg: 0%
[18]
  responders at 52 µmol/kg: 66.7%
  Molar Potency Ratio Claimed/Ref. Ester: ≥ 8

Reference: US4126616A, “N-propylnorapomorphine diesters” (Hinshaw; William B., priority 1976, dated 1978)
